Source: patent US20210009564A1, “CALPAIN MODULATORS AND THERAPEUTIC USES THEREOF” (BLADE THERAPERTICS, INC., priority 2018, published 2021)

Columns and labels:
Human Calpain 2/NS1 = target: T1, Human Calpain 2/NS1 (Homo sapiens, UniProt P17655); assay: Calpain inhibition, continuous fluorescence (FRET substrate) assay, calpain 2; format: biochemical; settings: SensoLyte 520 FRET substrate, 25C
T1 sequence (P17655 1-700): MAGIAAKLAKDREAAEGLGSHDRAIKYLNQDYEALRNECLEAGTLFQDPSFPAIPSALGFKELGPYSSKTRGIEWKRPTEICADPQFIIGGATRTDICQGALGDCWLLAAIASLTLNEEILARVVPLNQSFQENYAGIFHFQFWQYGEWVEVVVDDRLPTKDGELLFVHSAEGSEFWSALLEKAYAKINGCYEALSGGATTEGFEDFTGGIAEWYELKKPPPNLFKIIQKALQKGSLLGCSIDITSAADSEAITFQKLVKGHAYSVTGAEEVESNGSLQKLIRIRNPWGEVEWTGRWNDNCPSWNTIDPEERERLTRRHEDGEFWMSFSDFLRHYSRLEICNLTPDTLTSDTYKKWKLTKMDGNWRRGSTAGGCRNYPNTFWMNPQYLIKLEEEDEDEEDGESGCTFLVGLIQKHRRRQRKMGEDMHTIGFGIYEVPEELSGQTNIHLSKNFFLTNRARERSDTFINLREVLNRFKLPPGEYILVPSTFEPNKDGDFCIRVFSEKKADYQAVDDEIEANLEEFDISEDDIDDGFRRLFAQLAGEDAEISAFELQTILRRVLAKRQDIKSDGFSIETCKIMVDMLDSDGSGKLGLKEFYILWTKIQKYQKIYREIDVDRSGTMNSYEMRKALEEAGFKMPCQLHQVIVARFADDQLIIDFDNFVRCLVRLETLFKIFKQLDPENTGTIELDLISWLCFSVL
T1 sequence (P04632 1-268 partner): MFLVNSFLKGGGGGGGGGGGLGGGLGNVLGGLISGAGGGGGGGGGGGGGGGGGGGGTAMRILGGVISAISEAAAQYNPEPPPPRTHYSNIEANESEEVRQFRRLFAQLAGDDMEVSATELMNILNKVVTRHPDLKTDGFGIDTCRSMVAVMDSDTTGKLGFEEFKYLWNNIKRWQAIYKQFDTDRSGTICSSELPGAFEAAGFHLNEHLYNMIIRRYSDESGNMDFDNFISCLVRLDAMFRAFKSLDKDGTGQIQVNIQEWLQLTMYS
How it was run: (§1)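 Continuous FRET read-out (ex 490/em 520 nm) of 5-FAM/QXL 520 substrate cleavage, started by adding substrate with CaCl2 for in-situ activation after enzyme–inhibitor preincubation at 25 °C. Buffer was Tris 50 mM pH 7.5, NaCl 100 mM, DTT 1 mM. IC50 fitted (4-parameter) from rates over 1-5 min.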

Human Calpain 9/NS1 = target: T2, Human Calpain 9/NS1 (Homo sapiens, UniProt O14815); assay: Calpain inhibition, continuous fluorescence (FRET substrate) assay, calpain 9; format: biochemical; settings: SensoLyte 520 FRET substrate, 25C
T2 sequence (O14815 1-690): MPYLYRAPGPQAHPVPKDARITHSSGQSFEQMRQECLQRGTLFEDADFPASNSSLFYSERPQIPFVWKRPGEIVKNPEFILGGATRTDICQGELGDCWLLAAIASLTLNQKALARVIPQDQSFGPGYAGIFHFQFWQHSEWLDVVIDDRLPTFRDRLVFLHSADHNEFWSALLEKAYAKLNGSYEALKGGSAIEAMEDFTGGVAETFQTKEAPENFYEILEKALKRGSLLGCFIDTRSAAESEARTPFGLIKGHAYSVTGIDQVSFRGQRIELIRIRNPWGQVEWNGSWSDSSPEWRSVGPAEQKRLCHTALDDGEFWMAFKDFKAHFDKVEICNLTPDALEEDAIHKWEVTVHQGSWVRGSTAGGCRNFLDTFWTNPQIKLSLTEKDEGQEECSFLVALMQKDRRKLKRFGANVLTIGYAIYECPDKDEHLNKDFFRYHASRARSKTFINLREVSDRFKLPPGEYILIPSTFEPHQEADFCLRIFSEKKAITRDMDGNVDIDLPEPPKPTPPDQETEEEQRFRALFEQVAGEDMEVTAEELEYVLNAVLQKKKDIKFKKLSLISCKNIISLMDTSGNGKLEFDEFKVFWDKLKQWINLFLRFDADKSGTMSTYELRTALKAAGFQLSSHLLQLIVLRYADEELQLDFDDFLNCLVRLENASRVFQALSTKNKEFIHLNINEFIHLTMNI
T2 sequence (P04632 1-268 partner): T1 sequence (P04632 1-268 partner)
How it was run: as §1

[1] = tested on: Calpain activity in SH-SY5Y cells; assay: SH-SY5Y spectrin breakdown product (SBDP-150) western blot assay; format: cell-based; settings: Homo sapiens, read-out: SH-SY5Y Spectrin IC50
Human Calpain 1/NS1 = target: T3, Human Calpain 1/NS1 (Homo sapiens, UniProt P07384); assay: Calpain inhibition, continuous fluorescence (FRET substrate) assay, calpain 1; format: biochemical; settings: SensoLyte 520 FRET substrate, 25C
T3 sequence (P07384 1-714): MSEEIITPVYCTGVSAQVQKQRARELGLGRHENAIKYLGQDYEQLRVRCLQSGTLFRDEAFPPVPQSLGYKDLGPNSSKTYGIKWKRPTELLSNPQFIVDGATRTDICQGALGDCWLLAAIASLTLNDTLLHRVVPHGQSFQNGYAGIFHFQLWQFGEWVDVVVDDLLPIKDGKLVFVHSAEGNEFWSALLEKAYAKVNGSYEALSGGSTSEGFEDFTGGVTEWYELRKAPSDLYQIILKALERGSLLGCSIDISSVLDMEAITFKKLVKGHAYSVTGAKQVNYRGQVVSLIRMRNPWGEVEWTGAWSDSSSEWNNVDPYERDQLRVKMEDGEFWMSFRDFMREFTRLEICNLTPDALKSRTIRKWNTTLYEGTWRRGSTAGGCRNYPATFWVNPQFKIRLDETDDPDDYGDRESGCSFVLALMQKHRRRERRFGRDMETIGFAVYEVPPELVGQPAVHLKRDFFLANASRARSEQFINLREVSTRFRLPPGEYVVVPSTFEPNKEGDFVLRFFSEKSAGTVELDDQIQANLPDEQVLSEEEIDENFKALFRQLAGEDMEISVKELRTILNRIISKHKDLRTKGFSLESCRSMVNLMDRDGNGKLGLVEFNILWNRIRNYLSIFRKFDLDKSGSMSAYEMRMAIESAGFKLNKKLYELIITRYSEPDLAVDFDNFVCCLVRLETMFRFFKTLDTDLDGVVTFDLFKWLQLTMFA
T3 sequence (P04632 1-268 partner): T1 sequence (P04632 1-268 partner)
How it was run: as §1

[2] = tested on: Calpain activity in SH-SY5Y cells; assay: SH-SY5Y Suc-LLVY-AMC fluorescence assay; format: cell-based; settings: Homo sapiens, read-out: SH-SY5Y + AMC IC50
[3] = SH-SY5Y cells, 25 uM A23187, SBDP-150 western blot
[4] = SH-SY5Y cells, 100 uM Suc-LLVY-AMC

SMILES | IC50 (Human Calpain 2/NS1) [µM] | IC50 (Human Calpain 9/NS1) [µM] | IC50 ([1]; SH-SY5Y) [µM] | IC50 (Human Calpain 1/NS1) [µM] | IC50 ([2]; SH-SY5Y) [µM] | IC50 [1, 3] [µM] | IC50 [2, 4] [µM]
Cc1cc(C(=O)NC(Cc2ccccc2)C(=O)C(N)=O)nn1-c1ncc(-c2ccccc2)cn1 (stereo not drawn) [Compound 29, N-(4-AMINO-3,4-DIOXO-1-PHENYLBUTAN-2-YL)-5-METHYL-1-(5-PHENYLPYRIMIDIN-2-YL)-1H-PYRAZOLE-3-CARBOXAMIDE] | < 3 | 3 to 10 | > 25 | 3 to 10 | < 10 | – | –
Cc1cc(C(=O)NC(Cc2ccccc2)C(=O)C(N)=O)n(-c2ncc(-c3ccccc3)cn2)n1 (stereo not drawn) [Compound 30, N-(4-AMINO-3,4-DIOXO-1-PHENYLBUTAN-2-YL)-3-METHYL-1-(5-PHENYLPYRIMIDIN-2-YL)-1H-PYRAZOLE-5-CARBOXAMIDE] | < 3 | < 3 | < 10 | < 3 | > 25 | – | –
Cn1cc(C(=O)NC(Cc2ccccc2)C(=O)C(N)=O)c(-c2cccc3ncoc23)n1 (stereo not drawn) [Compound 31, N-(4-AMINO-3,4-DIOXO-1-PHENYLBUTAN-2-YL)-3-(BENZO[D]OXAZOL-7-YL)-1-METHYL-1H-PYRAZOLE-4-CARBOXAMIDE] | < 3 | < 3 | – | < 3 | – | < 10 | < 10
Cn1cc(C(=O)NC(Cc2ccccc2)C(=O)C(N)=O)c(-c2cccc3c2cnn3C)n1 (stereo not drawn) [Compound 32, N-(4-AMINO-3,4-DIOXO-1-PHENYLBUTAN-2-YL)-1-METHYL-3-(1-METHYL-1H-INDAZOL-4-YL)-1H-PYRAZOLE-4-CARBOXAMIDE] | < 3 | < 3 | – | < 3 | – | 10 to 25 | 10 to 25
Cn1ncc2cccc(-c3nn(C(F)F)cc3C(=O)NC(Cc3ccccc3)C(=O)C(N)=O)c21 (stereo not drawn) [Compound 34, N-(4-AMINO-3,4-DIOXO-1-PHENYLBUTAN-2-YL)-1-(DIFLUOROMETHYL)-3-(1-METHYL-1H-INDAZOL-7-YL)-1H-PYRAZOLE-4-CARBOXAMIDE] | < 3 | < 3 | – | < 3 | – | 10 to 25 | < 10
Cn1cc(C(=O)NC(Cc2ccccc2)C(=O)C(N)=O)c(-c2cccc3oc(=O)[nH]c23)n1 (stereo not drawn) [Compound 35, N-(4-AMINO-3,4-DIOXO-1-PHENYLBUTAN-2-YL)-1-METHYL-3-(2-OXO-2,3-DIHYDROBENZO[D]OXAZOL-4-YL)-1H-PYRAZOLE-4-CARBOXAMIDE] | < 3 | < 3 | – | < 3 | – | < 10 | < 10
NC(=O)C(=O)C(Cc1ccccc1)NC(=O)c1cn(C(F)F)nc1-c1cc(Cl)oc1Cl (stereo not drawn) [Compound 36, N-(4-AMINO-3,4-DIOXO-1-PHENYLBUTAN-2-YL)-3-(2,5-DICHLOROFURAN-3-YL)-1-(DIFLUOROMETHYL)-1H-PYRAZOLE-4-CARBOXAMIDE] | < 3 | < 3 | – | < 3 | – | < 10 | < 10
COc1cc2nccc(-c3nn(C)cc3C(=O)NC(Cc3ccccc3)C(=O)C(N)=O)c2cc1OC (stereo not drawn) [Compound 37, N-(4-AMINO-3,4-DIOXO-1-PHENYLBUTAN-2-YL)-3-(6,7-DIMETHOXYQUINOLIN-4-YL)-1-METHYL-1H-PYRAZOLE-4-CARBOXAMIDE] | < 3 | < 3 | – | < 3 | – | > 25 | > 25
COC(=O)C(=O)C(Cc1ccccc1)NC(=O)c1nsnc1-c1ccccc1 (stereo not drawn) [Compound 38, METHYL 2-OXO-4-PHENYL-3-(4-PHENYL-1,2,5-THIADIAZOLE-3-CARBOXAMIDO)BUTANOATE] | < 3 | < 3 | – | < 3 | – | < 10 | < 10
Cn1cc(C(=O)NC(Cc2ccccc2)C(=O)C(N)=O)c(-c2cccc3cn[nH]c23)n1 (stereo not drawn) [Compound 39, N-(4-AMINO-3,4-DIOXO-1-PHENYLBUTAN-2-YL)-3-(1H-INDAZOL-7-YL)-1-METHYL-1H-PYRAZOLE-4-CARBOXAMIDE] | < 3 | < 3 | – | < 3 | – | < 10 | 10 to 25
COC(=O)C(=O)C(Cc1ccccc1)NC(=O)c1cn(C)nc1-c1ccccc1F (stereo not drawn) [Compound 40, METHYL 3-(3-(2-FLUOROPHENYL)-1-METHYL-1H-PYRAZOLE-4-CARBOXAMIDO)-2-OXO-4-PHENYLBUTANOATE] | < 3 | < 3 | – | < 3 | – | > 25 | < 10
COC(=O)C(=O)C(Cc1ccccc1)NC(=O)c1cn(C2CC2)nc1-c1ccccc1 (stereo not drawn) [Compound 41, METHYL 3-(1-CYCLOPROPYL-3-PHENYL-1H-PYRAZOLE-4-CARBOXAMIDO)-2-OXO-4-PHENYLBUTANOATE] | < 3 | < 3 | – | < 3 | – | > 25 | < 10
COC(=O)C(=O)C(Cc1ccccc1)NC(=O)c1oc(C)nc1-c1ccccc1F (stereo not drawn) [Compound 42, METHYL 3-(4-(2-FLUOROPHENYL)-2-METHYLOXAZOLE-5-CARBOXAMIDO)-2-OXO-4-PHENYLBUTANOATE] | < 3 | < 3 | – | < 3 | – | < 10 | < 10
Cc1cc(C(=O)NC(Cc2ccccc2)C(=O)C(N)=O)n(-c2nccc(-c3ccccc3)n2)n1 (stereo not drawn) [Compound 45, N-(4-AMINO-3,4-DIOXO-1-PHENYLBUTAN-2-YL)-3-METHYL-1-(4-PHENYLPYRIMIDIN-2-YL)-1H-PYRAZOLE-5-CARBOXAMIDE] | < 3 | < 3 | 10 to 25 | < 3 | < 10 | – | –
Cc1occc1-c1nsnc1C(=O)NC(Cc1ccccc1)C(=O)C(N)=O (stereo not drawn) [Compound 46, N-(4-AMINO-3,4-DIOXO-1-PHENYLBUTAN-2-YL)-4-(2-METHYLFURAN-3-YL)-1,2,5-THIADIAZOLE-3-CARBOXAMIDE] | < 3 | < 3 | – | < 3 | – | < 10 | < 10
